Assay results taken from patent US7265120B2, “Pyrazine derivatives and pharmaceutical use thereof” (Astellas Pharma Inc., priority 2004, dated 2007).

Columns and labels:
ddY mice = assay: Anticatalepsy activity in mouse (haloperidol-induced catalepsy, bar test); type: in vivo; conditions: 3.2 mg/kg orally, ddY mice n=7; haloperidol 0.32 mg/kg i.p. 30 min after compound; measured 30 min after injection, up to 30 sec
Method: Test 2: Anticatalepsy Activity in Mouse [I] Test Method
The test compound (3.2 mg/kg) was administered orally with ddY mice (n=7). Then, haloperidol (0.32 mg/kg) was injected intraperitoneally 30 min. after the administration of the compound. Thirty min. after the injection, the cataleptic responses of mice were measured. The forelimbs of each mouse were placed on a 3 cm high, 3 mm wide horizontal bar, and the duration of cataleptic posture was measured for up to 30 sec.

human A2a receptor = human A2a receptor (Homo sapiens, UniProt P29274); assay: Adenosine antagonistic activity, radioligand binding ([3H]CGS 21680); conditions: [3H]CGS 21680 20 nM
Chain of human A2a receptor (P29274 whole entry): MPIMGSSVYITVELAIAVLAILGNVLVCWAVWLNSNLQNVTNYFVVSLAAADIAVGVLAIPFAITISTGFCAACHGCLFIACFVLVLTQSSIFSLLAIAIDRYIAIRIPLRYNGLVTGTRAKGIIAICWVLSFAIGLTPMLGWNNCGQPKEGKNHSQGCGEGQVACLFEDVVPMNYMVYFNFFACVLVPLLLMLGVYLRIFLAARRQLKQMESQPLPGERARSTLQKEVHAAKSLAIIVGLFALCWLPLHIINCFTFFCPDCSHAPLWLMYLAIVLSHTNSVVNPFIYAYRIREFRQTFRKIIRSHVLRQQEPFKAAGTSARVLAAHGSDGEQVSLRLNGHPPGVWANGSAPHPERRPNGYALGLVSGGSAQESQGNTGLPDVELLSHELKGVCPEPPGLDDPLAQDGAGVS
Method: (§1) Test 1: Adenosine Antagonistic Activity
(§2) The adenosine antagonistic activity [Ki (nM)] of the test compound was examined by radioligand binding techniques using 8-cyclopentyl-1,3-dipropylxanthine, [dipropyl-2,3-^3H(N)] ([^3H]DPCPX, 4.5 nM) for human A1 receptor and [^3H]CGS 21680 (20 nM) for human A2a receptor.

human A1 receptor = biological target: T1, human A1 receptor (Homo sapiens, UniProt P30542); assay: Adenosine antagonistic activity, radioligand binding ([3H]DPCPX); conditions: [3H]DPCPX 4.5 nM
T1 sequence (P30542 1-326): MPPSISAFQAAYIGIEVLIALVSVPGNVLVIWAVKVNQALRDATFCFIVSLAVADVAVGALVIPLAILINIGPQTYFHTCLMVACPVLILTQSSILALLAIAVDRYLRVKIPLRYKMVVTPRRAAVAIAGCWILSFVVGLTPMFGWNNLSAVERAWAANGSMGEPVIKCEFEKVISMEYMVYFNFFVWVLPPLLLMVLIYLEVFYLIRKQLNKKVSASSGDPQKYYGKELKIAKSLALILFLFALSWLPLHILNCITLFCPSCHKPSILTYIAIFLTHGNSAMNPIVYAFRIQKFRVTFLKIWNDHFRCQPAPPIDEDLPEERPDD
Method: as §1, §2

Row | Ki (human A2a receptor) [nM] | melting point | Ki (human A1 receptor) [nM] | Compound | Manifestation rate of Catalepsy (number of mouse) (ddY mice)
1 | 0.42 | 150 to 151 °C | 1.35 | CC(C)n1nc(-c2nc(OCc3ccccn3)c(N)nc2-c2ccccc2)ccc1=O [Example 163, 6-[5-amino-3-phenyl-6-(2-pyridylmethoxy)-2-pyrazinyl]-2-isopropyl-3(2H)-pyridazinone] | 2/7
2 | 0.29 | 239 to 241 °C | 0.88 | CC(C)n1nc(-c2nc(C#Cc3ccccc3)c(N)nc2-c2ccccc2)ccc1=O [Example 70, 6-[5-amino-3-phenyl-6-(phenylethynyl)-2-pyrazinyl]-2-isopropyl-3(2H)-pyridazinone] | 0/7
3 | 1.72 | > 250 °C | 11.2 | Cn1nc(-c2nc(C#N)c(N)nc2-c2ccccc2)ccc1=O [Example 17, 3-Amino-6-(1-methyl-6-oxo-1,6-dihydro-3-pyridazinyl)-5-phenyl-2-pyrazinecarbonitrile] | 0/7
4 | 2.65 |  | 15.9 | CC(C)n1nc(-c2nc(Cl)c(N)nc2-c2ccc(F)cc2)ccc1=O [Example 37, 6-[5-Amino-6-chloro-3-(4-fluorophenyl)-2-pyrazinyl]-2-isopropyl-3(2H)-pyridazinone] | 0/7
5 | 4.95 | 187 to 189.5 °C | 18.9 | Cn1nc(-c2nc(-n3cccn3)c(N)nc2-c2ccccc2)ccc1=O [Example 153, 6-[5-amino-3-phenyl-6-(1H-pyrazol-1-yl)-2-pyrazinyl]-2-methyl-3(2H)-pyridazinone] | 2/7
6 | 6.89 |  | 23 | CC(C)n1nc(-c2ncc(N)nc2-c2ccc(F)cc2)ccc1=O [Example 36, 6-[5-Amino-3-(4-fluorophenyl)-2-pyrazinyl]-2-isopropyl-3(2H)-pyridazinone] | 0/7
7 |  | 250 to 252 °C |  | COc1ccc(-c2nc(N)c(C(N)=O)nc2-c2ccc(=O)n(C(C)C)n2)cn1 [Example 194, 3-amino-6-(1-isopropyl-6-oxo-1,6-dihydro-3-pyridazinyl)-5-(6-methoxy-3-pyridyl)-2-pyrazinecarboxamide] | 
8 |  | 148 to 150 °C |  | CCn1nc(-c2ncc(NCc3ccc(OC)cc3)nc2-c2ccccc2)ccc1=O [Example 58, 2-ethyl-6-{5-[(4-methoxybenzyl)amino]-3-phenyl-2-pyrazinyl}-3(2H)-pyridazinone] | 
9 |  | 194 to 196 °C |  | COc1ccc(N2CCN(c3nc(-c4ccc(=O)n(C(C)C)n4)c(-c4ccccc4)nc3N)CC2)cc1 [Example 116, 6-{5-amino-6-[4-(4-methoxyphenyl)-1-piperazinyl]-3-phenyl-2-pyrazinyl}-2-isopropyl-3(2H)-pyridazinone] | 
10 |  | 225 to 227 °C |  | CC(C)n1nc(-c2ncc(O)nc2-c2ccccc2)ccc1=O [Example 1, 6-(5-hydroxy-3-phenyl-2-pyrazinyl)-2-isopropyl-3(2H)-pyridazinone] | 
11 |  | 233 to 235 °C |  | CC(C)n1nc(-c2nc(OCC(F)(F)F)c(N)nc2-c2ccccc2)ccc1=O [Example 171, 6-[5-amino-3-phenyl-6-(2,2,2-trifluoroethoxy)-2-pyrazinyl]-2-isopropyl-3(2H)-pyridazinone] | 
12 |  | 201 to 203 °C |  | CCn1nc(-c2nc(C#N)c(C#N)nc2-c2ccccc2)ccc1=O [Example 11, 5-(1-Ethyl-6-oxo-1,6-dihydro-3-pyridazinyl)-6-phenyl-2,3-pyrazinedicarbonitrile] | 
13 |  | > 250 °C |  | CCn1nc(-c2nc(C(N)=O)c(N)nc2-c2ccccc2)ccc1=O [Example 14, 3-Amino-6-(1-ethyl-6-oxo-1,6-dihydro-3-pyridazinyl)-5-phenyl-2-pyrazinecarboxamide] | 
14 |  | 230 to 232.5 °C |  | COc1ccc(-c2nc(-c3ccc(=O)n(C(C)C)n3)c(-c3ccccc3)nc2N)cn1 [Example 83, 6-[5-amino-6-(6-methoxy-3-pyridyl)-3-phenyl-2-pyrazinyl]-2-isopropyl-3(2H)-pyridazinone] | 
15 |  | 231 to 233 °C |  | CC(C)n1nc(-c2nc(C#N)c(N)nc2-c2ccccc2)ccc1=O [Example 6, 3-amino-6-(1-isopropyl-6-oxo-1,6-dihydro-3-pyridazinyl)-5-phenyl-2-pyrazinecarbonitrile] | 
16 |  | 198 to 200 °C |  | CC(C)n1nc(-c2nc(C#N)c(NC=O)nc2-c2ccccc2)ccc1=O [Example 25, [3-Cyano-5-(1-isopropyl-6-oxo-1,6-dihydro-3-pyridazinyl)-6-phenyl-2-pyrazinyl]formamide] | 

Row | Ki (human A2a receptor) [nM] | melting point | Ki (human A1 receptor) [nM] | Compound | Manifestation rate of Catalepsy (number of mouse) (ddY mice)
17 |  | 174 to 176 °C |  | CC(C)n1nc(-c2nc(N(C)C)c(N)nc2-c2ccccc2)ccc1=O [Example 96, 6-[5-amino-6-(dimethylamino)-3-phenyl-2-pyrazinyl]-2-isopropyl-3(2H)-pyridazinone] | 
18 |  | 200 to 202 °C |  | CCCCNc1nc(-c2ccc(=O)n(C(C)C)n2)c(-c2ccccc2)nc1N [Example 99, 6-[5-amino-6-(butylamino)-3-phenyl-2-pyrazinyl]-2-isopropyl-3(2H)-pyridazinone] | 
19 |  | > 250 °C |  | Cc1nc(-c2ccc(=O)n(C(C)C)n2)c(-c2ccccc2)nc1O [Example 2, 6-(5-Hydroxy-6-methyl-3-phenyl-2-pyrazinyl)-2-isopropyl-3(2H)-pyridazinone] | 
20 |  | 238 °C (dec.) |  | Cn1nc(-c2nc(C(=O)O)c(N)nc2-c2ccccc2)ccc1=O [Example 19, 3-Amino-6-(1-methyl-6-oxo-1,6-dihydro-3-pyridazinyl)-5-phenyl-2-pyrazinecarboxylic acid] | 
21 |  | 197 to 199 °C |  | CC(C)n1nc(-c2nc(C#N)c(N=CN(C)C)nc2-c2ccccc2Br)ccc1=O [Example 188, N′-[6-(2-bromophenyl)-3-cyano-5-(1-isopropyl-6-oxo-1,6-dihydro-3-pyridazinyl)-2-pyrazinyl]-N,N-dimethylimidoformamide] | 
22 |  | 244.5 to 245 °C |  | CC(C)n1nc(-c2nc(/C=C/c3ccccc3)c(N)nc2-c2ccccc2)ccc1=O [Example 87, 6-{5-amino-3-phenyl-6-[(E)-2-phenylvinyl]-2-pyrazinyl}-2-isopropyl-3(2H)-pyridazinone] | 
23 |  | 208 to 210 °C |  | C=CCNc1nc(-c2ccc(=O)n(C(C)C)n2)c(-c2ccccc2)nc1N [Example 101, 6-[6-(allylamino)-5-amino-3-phenyl-2-pyrazinyl]-2-isopropyl-3(2H)-pyridazinone] | 
24 |  | 211 to 214 °C |  | CSc1nc(-c2ccc(=O)n(C(C)C)n2)c(-c2ccccc2)nc1N [Example 54, 6-[5-amino-6-(methylthio)-3-phenyl-2-pyrazinyl]-2-isopropyl-3(2H)-pyridazinone] | 
25 |  | 163 to 165 °C |  | CC(C)n1nc(-c2nc(N3CCN(c4ccccn4)CC3)c(N)nc2-c2ccccc2)ccc1=O [Example 142, 6-{5-amino-3-phenyl-6-[4-(2-pyridyl)-1-piperazinyl]-2-pyrazinyl}-2-isopropyl-3(2H)-pyridazinone] | 
26 |  | 240 to 242 °C |  | CC(C)n1nc(-c2nc(-c3nc(-c4ccccc4)cs3)c(N)nc2-c2ccccc2)ccc1=O [Example 28, 6-[5-Amino-3-phenyl-6-(4-phenyl-thiazol-2-yl)-2-pyrazinyl]-2-isopropyl-3(2H)-pyridazinone] | 
27 |  | > 250 °C |  | Cn1nc(-c2nc(O)c(N)nc2-c2ccccc2)ccc1=O [Example 187, 6-(5-amino-6-hydroxy-3-phenyl-2-pyrazinyl)-2-methyl-3(2H)-pyridazinone] | 
28 |  | 201 to 202 °C |  | CC(C)n1nc(-c2nc(C#N)c(C#N)nc2-c2ccccc2)ccc1=O [Example 4, 5-(1-isopropyl-6-oxo-1,6-dihydro-3-pyridazinyl)-6-phenyl-2,3-pyrazinedicarbonitrile] | 
29 |  | 205 to 207.5 °C |  | CC(C)n1nc(-c2nc(N3CCN4CCCC4C3)c(N)nc2-c2ccccc2)ccc1=O (stereo not drawn) [Example 118, 6-[5-amino-6-(hexahydropyrrolo[1,2-a]pyrazin-2(1H)-yl)-3-phenyl-2-pyrazinyl]-2-isopropyl-3(2H)-pyridazinone] | 
30 |  | > 250 °C |  | CC(C)n1nc(-c2nc(-n3cnc4ccccc43)c(N)nc2-c2ccccc2)ccc1=O [Example 152, 6-[5-amino-6-(1H-benzimidazol-1-yl)-3-phenyl-2-pyrazinyl]-2-isopropyl-3(2H)-pyridazinone] | 
31 |  | 86 to 91 °C |  | CC(C)n1nc(-c2nc(NC3CCN(Cc4ccccc4)C3)c(N)nc2-c2ccccc2)ccc1=O (stereo not drawn) [Example 138, 6-{5-amino-6-[(1-benzyl-3-pyrrolidinyl)amino]-3-phenyl-2-pyrazinyl)-2-isopropyl-3(2H)-pyridazinone] | 

Row | Compound | Ki (human A2a receptor) [nM] | melting point | Ki (human A1 receptor) [nM] | Manifestation rate of Catalepsy (number of mouse) (ddY mice)
32 | CCCCOc1nc(-c2ccc(=O)n(C)n2)c(-c2ccccc2)nc1N [Example 179, 6-(5-amino-6-butoxy-3-phenyl-2-pyrazinyl)-2-methyl-3(2H)-pyridazinone] | 1.57 | 143 to 144 °C | 16.4 | 1/7
